Experimental data as given in ChEMBL document CHEMBL6103603, “Novel Imidazo[4,5-c]pyridine Compounds as TLR7 Agonists for Treating Cancer” (ACS Med Chem Lett, 2025).

Molecular target: T1, Toll-like receptor 7 (Homo sapiens, UniProt Q9NYK1)
T1 sequence (Q9NYK1 whole entry): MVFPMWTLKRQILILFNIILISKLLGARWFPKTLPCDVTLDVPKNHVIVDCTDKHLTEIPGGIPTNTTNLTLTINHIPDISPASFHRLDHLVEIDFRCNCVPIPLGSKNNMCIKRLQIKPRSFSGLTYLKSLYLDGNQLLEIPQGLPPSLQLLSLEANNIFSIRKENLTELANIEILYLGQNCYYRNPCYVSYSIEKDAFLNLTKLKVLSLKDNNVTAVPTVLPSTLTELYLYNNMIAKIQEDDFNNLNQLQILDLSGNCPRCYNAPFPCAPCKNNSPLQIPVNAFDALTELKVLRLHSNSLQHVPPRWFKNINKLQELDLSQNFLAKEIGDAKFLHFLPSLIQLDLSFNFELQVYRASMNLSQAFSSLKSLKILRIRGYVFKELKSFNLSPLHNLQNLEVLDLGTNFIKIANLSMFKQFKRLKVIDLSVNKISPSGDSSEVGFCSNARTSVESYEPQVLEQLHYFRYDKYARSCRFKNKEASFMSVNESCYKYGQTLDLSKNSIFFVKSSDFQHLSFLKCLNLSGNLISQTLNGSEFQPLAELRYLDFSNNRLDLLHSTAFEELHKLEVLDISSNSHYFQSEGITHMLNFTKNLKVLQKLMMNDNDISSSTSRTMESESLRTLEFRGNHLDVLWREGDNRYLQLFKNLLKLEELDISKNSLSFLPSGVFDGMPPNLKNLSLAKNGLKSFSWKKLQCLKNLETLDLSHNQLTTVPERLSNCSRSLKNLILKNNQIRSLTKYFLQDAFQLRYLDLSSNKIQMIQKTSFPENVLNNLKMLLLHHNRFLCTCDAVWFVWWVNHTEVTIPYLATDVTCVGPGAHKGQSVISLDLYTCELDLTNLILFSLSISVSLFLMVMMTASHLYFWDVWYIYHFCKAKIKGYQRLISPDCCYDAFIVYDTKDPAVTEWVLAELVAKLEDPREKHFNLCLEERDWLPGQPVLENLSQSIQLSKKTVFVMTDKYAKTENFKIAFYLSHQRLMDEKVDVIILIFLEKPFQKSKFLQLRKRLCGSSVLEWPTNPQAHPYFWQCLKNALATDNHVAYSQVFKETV
Assay: Agonist activity at TLR7 in HEK-Blue hTLR7 cells expressing NF-kappaB/AP-1 inducible SEAP reporter gene using Quanti-blue as substrate preincubated for 20 hrs followed by substrate addition and measured after 1 hr by spectrophotometric analysis
Type: cell-based

- EC50: 10 nM
SMILES: CCOCc1nc2c(N)nc(C)c(Sc3ccc(CN(C)C)c(O)c3)c2[nH]1
